Experimental data as given in patent US9381200B2, “Nitrogen containing compounds” (WOCKHARDT LIMITED, priority 2011, dated 2016).
In brackets after ≈: the same amount, converted by molar mass. Read-outs that look alike come from different tables or passages of the source.

How the values were obtained:
Test in all cases: Antibacterial activity (MIC), agar dilution per CLSI
Type in all cases: cell-based
[1] = test system: E. coli 7 MP; details: Table 3, E. coli 7 MP expressing ESBL
Method: (§1) The biological activity of representative compounds according to the invention against various bacterial strains was investigated. In a typical study, overnight grown bacterial cultures were diluted appropriately and inoculated on the agar media containing doubling dilutions of the test compounds. Observation for growth or no growth was performed after 16-20 hours of incubation at 35±2° C. in ambient air. The overall procedure was performed as per Clinical and Laboratory Standards Institute (CLSI) recommendations (Clinical and Laboratory Standards Institute (CLSI), Performance Standards for Antimicrobial Susceptibility Testing, 20th Informational Supplement, M 100-S20, Volume 30, No. 1, 2010).
(§2) Table 3 details antibacterial activity of representative compounds according to the invention against various E. coli strains (NCTC 13351, M 50 and 7 MP) expressing ESBL (Extended Spectrum Beta Lactamases).

[2] = test system: E. coli NCTC 13351; details: 16-20 hours, 35±2° C.
Method: as §1, §2

[3] = test system: E. coli M 50; details: E. coli M 50 expressing ESBL, agar dilution
Method: as §1
The activities are expressed as MICs (mcg/ml).

[4] = Escherichia coli, read-out: MIC
[5] = Escherichia coli, NCTC13351, Table 3, E. coli NCTC 13351 expressing ESBL, read-out: MIC
[6] = Escherichia coli, M50, Table 3, read-out: MIC
[7] = Table 3, E. coli NCTC 13351 expressing ESBL

Row | Structure (SMILES) | MIC [1, 4] | MIC [2, 5] | MIC [3, 6] | MIC [1] | MIC [2, 7] | MIC ([3]; Table 3)
1 | CO[C@H]1CN[C@H](C(=O)NNC(=O)[C@H]2CC[C@@H]3CN2C(=O)N3OS(=O)(=O)O)C1 (mixture of isomers) [Example 12, trans-sulfuric acid mono-[2-(N′-[(2S,4R)-4-methoxy-pyrrolidin-2-carbonyl]-hydrazinocarbonyl)-7-oxo-1,6-diaza-bicyclo[3.2.1]oct-6-yl]ester] | 32 µg/mL | 1 µg/mL | 8 µg/mL |  |  | 
2 | O=C(NNC(=O)N1CCOCC1)[C@H]1CC[C@@H]2CN1C(=O)N2OS(=O)(=O)O.[Na] (relative stereo) [Example 47, Sodium salt of trans-sulfuric acid mono-[2-(N′-(morpholin-4-oxo-carbonyl)-hydrazinocarbonyl)-7-oxo-1,6-diaza-bicyclo[3.2.1]oct-6-yl]ester] |  |  |  | 128 µg/mL | 32 µg/mL | 64 µg/mL
3 | O=C(NNC(=O)[C@H]1CCCCN1)[C@H]1CC[C@@H]2CN1C(=O)N2OS(=O)(=O)O (mixture of isomers) [Example 18, trans-sulfuric acid mono-[2-(N′—((R)-piperidin-2-carbonyl)-hydrazinocarbonyl)-7-oxo-1,6-diaza-bicyclo[3.2.1]oct-6-yl]ester] | 32 µg/mL | 8 µg/mL | 4 µg/mL |  |  | 
4 | O=C(NNC(=O)[C@H]1CC[C@@H]2CN1C(=O)N2OS(=O)(=O)O)C1CCCCN1 (mixture of isomers) [Example 16, trans-sulfuric acid mono-[2-(N′—((RS)-piperidin-2-carbonyl)-hydrazinocarbonyl)-7-oxo-1,6-diaza-bicyclo[3.2.1]oct-6-yl]ester] | 2 µg/mL (≈ 5.11 µM) | 1 µg/mL (≈ 2.55 µM) | 1 µg/mL (≈ 2.55 µM) |  |  | 
5 | O=C(NNC(=O)[C@H]1CC[C@@H]2CN1C(=O)N2OS(=O)(=O)O)[C@@H]1C[C@@H](O)CN1 (mixture of isomers) [Example 34, trans-sulfuric acid mono-[2-(N′-[(2S,4R)-4-hydroxy-pyrrolidin-2-carbonyl]-hydrazinocarbonyl)-7-oxo-1,6-diaza-bicyclo[3.2.1]oct-6-yl]ester] | 8 µg/mL | 2 µg/mL | 2 µg/mL |  |  | 
6 | O=C(CN1CCOCC1)NNC(=O)C1CCC2CN1C(=O)N2OS(=O)(=O)[O-].[Na+] (stereo not drawn) [Example 45, Sodium salt of trans-sulfuric acid mono-[2-(N′-(morpholin-4-yl-acetyl)-hydrazinocarbonyl)-7-oxo-1,6-diaza-bicyclo[3.2.1]oct-6-yl]ester] |  |  |  | 8 µg/mL | 4 µg/mL | 8 µg/mL
7 | CS(=O)(=O)N1CCC[C@H]1C(=O)NNC(=O)[C@H]1CC[C@@H]2CN1C(=O)N2OS(=O)(=O)[O-].[Na+] (relative stereo) [Example 50, Sodium salt of trans-sulfuric acid mono-[2-(N′—[(S)-1-methanesulfonyl-pyrrolidin-2-carbonyl]-hydrazinocarbonyl)-7-oxo-1,6-diaza-bicyclo[3.2.1]oct-6-yl]ester] |  |  |  | 32 µg/mL | 16 µg/mL | 16 µg/mL
8 | CC(C)(CN)C(=O)NNC(=O)[C@H]1CC[C@@H]2CN1C(=O)N2OS(=O)(=O)O (relative stereo) [Example 22, trans-sulfuric acid mono-[2-(N′-(3-amino-2,2-dimethyl-propioyl)-hydrazinocarbonyl)-7-oxo-1,6-diaza-bicyclo[3.2.1]oct-6-yl]ester] | 8 µg/mL (≈ 21.1 µM) | 4 µg/mL (≈ 10.5 µM) | 4 µg/mL (≈ 10.5 µM) |  |  | 
9 | NC(=O)CCC(N)C(=O)NNC(=O)[C@H]1CC[C@@H]2CN1C(=O)N2OS(=O)(=O)O (relative stereo) [Example 24, trans-sulfuric acid mono-[2-(N′-(2-amino-4-carboxamido-butanoyl)-hydrazinocarbonyl)-7-oxo-1,6-diaza-bicyclo[3.2.1]oct-6-yl]ester] |  |  |  | 4 µg/mL (≈ 9.79 µM) | 1 µg/mL (≈ 2.45 µM) | 1 µg/mL (≈ 2.45 µM)
10 | NC(C(=O)NNC(=O)[C@H]1CC[C@@H]2CN1C(=O)N2OS(=O)(=O)O)c1ccccc1 (mixture of isomers) [Example 20, trans-sulfuric acid mono-[2-(N′—((RS)-1-amino-1-phenyl-acetyl)-hydrazinocarbonyl)-7-oxo-1,6-diaza-bicyclo[3.2.1]oct-6-yl]ester] |  |  |  | 8 µg/mL (≈ 19.4 µM) | 2 µg/mL (≈ 4.84 µM) | 2 µg/mL (≈ 4.84 µM)
11 | O=C(NNC(=O)[C@H]1CC[C@@H]2CN1C(=O)N2OS(=O)(=O)O)C1CNC1 (relative stereo) [Example 28, trans-sulfuric acid mono-[2-(N′-[azetidin-3-carbonyl]-hydrazinocarbonyl)-7-oxo-1,6-diaza-bicyclo[3.2.1]oct-6-yl]ester] | 4 µg/mL (≈ 11 µM) | 1 µg/mL (≈ 2.75 µM) | 1 µg/mL (≈ 2.75 µM) |  |  | 
12 | NCCOCC(=O)NNC(=O)[C@H]1CC[C@@H]2CN1C(=O)N2OS(=O)(=O)O (relative stereo) [Example 27, trans-sulfuric acid mono-[2-(N′-((2-aminoethoxy)-acetyl)-hydrazinocarbonyl)-7-oxo-1,6-diaza-bicyclo[3.2.1]oct-6-yl]ester] | 8 µg/mL (≈ 21 µM) | 4 µg/mL (≈ 10.5 µM) | 2 µg/mL (≈ 5.24 µM) |  |  | 
13 | N=C(N)N[C@@H]1CN[C@H](C(=O)NNC(=O)[C@H]2CC[C@@H]3CN2C(=O)N3OS(=O)(=O)O)C1 (mixture of isomers) [Example 36, trans-sulfuric acid mono-[2-(N′-[(2S,4S)-4-guanidino-pyrrolidin-2-carbonyl]-hydrazinocarbonyl)-7-oxo-1,6-diaza-bicyclo[3.2.1]oct-6-yl]ester] | 2 µg/mL | 1 µg/mL | 1 µg/mL |  |  | 
14 | CC(C)(C)OC(=O)NNC(=O)[C@H]1CC[C@@H]2CN1C(=O)N2OS(=O)(=O)[O-].[Na+] (relative stereo) [Example 44, Sodium salt of trans-N′-(7-oxo-6-sulfooxy-1,6-diaza-bicyclo[3.2.1]octane-2-carboxylic acid)-hydrazinecarboxylic acid tert-butyl ester] |  |  |  | 64 µg/mL | 32 µg/mL | 32 µg/mL
15 | O=C1CC[C@@H](C(=O)NNC(=O)[C@H]2CC[C@@H]3CN2C(=O)N3OS(=O)(=O)[O-])N1.[Na+] (relative stereo) [Example 52, Sodium salt of trans-sulfuric acid mono-[2-(N′—[(S)-5-oxo-pyrrolidin-2-carbonyl]-hydrazinocarbonyl)-7-oxo-1,6-diaza-bicyclo[3.2.1]oct-6-yl]ester] |  |  |  | 2 µg/mL | 0.5 µg/mL | 0.5 µg/mL
16 | NC(=O)N1C[C@@H](F)C[C@H]1C(=O)NNC(=O)C1CCC2CN1C(=O)N2OS(=O)(=O)[O-].[Na+] (relative stereo) [Example 49, Sodium salt of trans-sulfuric acid mono-[2-(N′—[(2S,4S)-1-carbamoyl-4-fluoro-pyrrolidin-2-carbonyl]-hydrazinocarbonyl)-7-oxo-1,6-diaza-bicyclo[3.2.1]oct-6-yl]ester] |  |  |  | 16 µg/mL | 32 µg/mL | 16 µg/mL
17 | NC(=O)N1CCC[C@H]1C(=O)NNC(=O)[C@H]1CC[C@@H]2CN1C(=O)N2OS(=O)(=O)[O-].[Na+] (relative stereo) [Example 48, Sodium salt of trans-sulfuric acid mono-[2-(N′—[(S)-1-carbamoyl-pyrrolidin-2-carbonyl]-hydrazinocarbonyl)-7-oxo-1,6-diaza-bicyclo [3.2.1]oct-6-yl]ester] |  |  |  | 32 µg/mL | 16 µg/mL | 8 µg/mL
18 | O=C(CCC1CCCCN1)NNC(=O)[C@H]1CC[C@@H]2CN1C(=O)N2OS(=O)(=O)O (mixture of isomers) [Example 37, trans-sulfuric acid mono-[2-(N′—[(RS)-3-piperidin-2-yl-propionyl]-hydrazinocarbonyl)-7-oxo-1,6-diaza-bicyclo[3.2.1]oct-6-yl]ester] | 4 µg/mL (≈ 9.54 µM) | 2 µg/mL (≈ 4.77 µM) | 2 µg/mL (≈ 4.77 µM) |  |  | 
19 | O=C(NNC(=O)[C@H]1CC[C@@H]2CN1C(=O)N2OS(=O)(=O)O)[C@H]1CCCNC1 (mixture of isomers) [Example 15, trans-sulfuric acid mono-[2-(N′—((S)-piperidin-3-carbonyl)-hydrazinocarbonyl)-7-oxo-1,6-diaza-bicyclo[3.2.1]oct-6-yl]ester] | 16 µg/mL | 8 µg/mL | 4 µg/mL |  |  | 
20 | NCC1(C(=O)NNC(=O)[C@H]2CC[C@@H]3CN2C(=O)N3OS(=O)(=O)O)CC1 (relative stereo) [Example 23, trans-sulfuric acid mono-[2-(N′-(1-aminomethyl-cyclopropan-1-carbonyl)-hydrazinocarbonyl)-7-oxo-1,6-diaza-bicyclo[3.2.1]oct-6-yl]ester] | 8 µg/mL (≈ 21.2 µM) | 4 µg/mL (≈ 10.6 µM) | 4 µg/mL (≈ 10.6 µM) |  |  | 
21 | O=C(NNC(=O)[C@H]1CC[C@@H]2CN1C(=O)N2OS(=O)(=O)O)[C@H]1CCNC1 (mixture of isomers) [Example 33, trans-sulfuric acid mono-[2-(N′—[(S)-pyrrolidin-3-carbonyl]-hydrazinocarbonyl)-7-oxo-1,6-diaza-bicyclo[3.2.1]oct-6-yl]ester] | 2 µg/mL | 1 µg/mL | 0.5 µg/mL |  |  | 
